Laboratory results as given in US20250312314A1, “METHOD AND COMPOSITION FOR IMPROVING OR MAINTAINING SKIN HEALTH OF MAMMALS” (NANJING NUTRABUILDING BIO-TECH CO., LTD., priority 2022, published 2025).

Legend:
[1] = system: Streptococcus; test: Relative abundance of Streptococcus in skin of subjects after applying EGT base cream (16S rRNA); format: in vivo, human; conditions: once a day for 4 weeks
Procedure: (§1) Thirty healthy women aged 20-59 were randomly divided into three groups. The first group (0% EGT, n=10) was applied with pure base cream as the control group, the second group (5% EGT, n=10) was applied with base cream mixed with 5% ergothioneine, and the third group (10% EGT, n=10) was applied with base cream mixed with 10% ergothioneine. The applying was performed once a day for 4 weeks. Skin microorganisms were collected on the 0 th and 28 th days respectively, and the elasticity, moisture and desquamation of the skin of the subjects were measured on the 28 th day. Sterile water was used to wash Participants' faces and then applied on solid trypsin soy agar (TSA) medium. Individual colonies were collected and cultured in liquid trypsin soy broth (TSB) medium at 37° C. for 72 hours.
Each sample was centrifuged and the precipitate was collected, and the microbial DNA in the precipitate was extracted with a specific kit. The purity and quantity of DNA were measured by spectrophotometer. The 16S rRNA gene of bacteria was amplified with the following primers: forward, 5′-[…]-3′ (SEQ ID NO: 1); reverse, 5′-[…]-3′ (SEQ ID NO: 2). PCR was carried out in a 25 μL reactor, which contained 2 μL genomic DNA (10 ng/μL), 0.5 μL primers (10 μM), 12.5 μL 2×KAPA HiFi HotStart Ready Mix and 9.5 μL distilled water. […]

[2] = system: Staphylococcus epidermidis; test: Microbial colonization of reconstructed layered human epidermis, live count; format: cell-based; conditions: 24±2 h
Procedure: (§2) Primary adult human skin fibroblasts were embedded in fibrin matrix to produce dermal equivalent. The dermal equivalent was cultured to allow fibroblasts to reconstruct matrix. Primary neonatal human keratinocytes were applied on the surface of dermal equivalent and cultured in liquid for 48 hours. Culture was carried out on the air-liquid interface (ALI) until a layered epidermis was formed.
(§3) Staphylococcus epidermidis, Corynebacterium spp., Cutibacterium spp., Propionibacterium acnes and Malassezia were cultured in proper culture medium and incubation conditions (37±2° C., 5±1% (v/v) CO2, ≥95% RH). Inoculation buffer (GS25) was used to prepare inoculum containing about 1.1×10^6 cfu mL^−1 microbial flora of the above bacteria. 10 μL of the mixture was used for skin (layered epidermis) colonization, and each unit was colonized with about 10^4 cfu·cm^−2 of each bacterium. After that, the layered epidermis was incubated at 37±2° C., 5±1% (v/v) CO2, ≥95% RH for 3±1 hours.
(§4) α-Glucan Oligosaccharide (α-GO for short) is a famous prebiotic, which can protect skin health by maintaining the balance of microbial population and strengthening the microbial barrier of skin, so the experiment took it as a control. Control (α-GO, 1 μM) and EGT (0 μM, 0.1 μM, 1 μM, 10 μM, 100 μM, 1000 μM) were applied on the layered epidermis respectively, and then incubated for 24±2 hours at 37±2° C., 5±1% (v/v) CO2 and ≥95% RH. Then, the above five kinds of microorganisms were counted respectively to evaluate the inhibitory effect of α-GO and EGT on microbial growth: 8 mm live tissue slices were taken from layered epidermis, and the number of live bacteria (cfu·cm^−2) was evaluated by incubation on appropriate selective solid medium. The choice of solid medium is based on the characteristics of microorganisms themselves.

[3] = system: Cutibacterium spp.; test: as above; format: cell-based; conditions: 24±2 h
Procedure: as §2, §3, §4

[4] = system: Propionibacterium acnes; test: as above; format: cell-based; conditions: 24±2 h
Procedure: as §2, §3, §4

[5] = system: Corynebacterium spp.; test: as above; format: cell-based; conditions: 24±2 h
Procedure: as §2, §3, §4

[6] = system: Malassezia; test: as above; format: cell-based; conditions: 24±2 h
Procedure: as §2, §3, §4

[7] = Elasticity, moisture and desquamation of skin of subjects after applying EGT base cream; format: in vivo, human; conditions: once a day for 4 weeks, day 28
Procedure: as §1

[8] = EGT 0.1-1000 μM, effect more significant with increasing concentration

C[N+](C)(C)[C@@H](Cc1c[nH]c(=S)[nH]1)C(=O)[O-] [EGT, Ergothioneine]
effect on relative abundance of Streptococcus, 10% EGT group compared with 5% EGT ([1]; 10% EGT base cream): more obvious
relative abundance (RA) of Streptococcus in skin vs pure base cream group ([1]; EGT base cream (5% and 10%), healthy women): more abundant
colonization of Staphylococcus epidermidis in the layered epidermis (live bacteria count) [2, 8]: obviously inhibited
inhibitory effect on Staphylococcus epidermidis compared with α-GO ([2]; same concentration (1 μM)): better inhibitory effect
colonization of Cutibacterium spp. in the layered epidermis (live bacteria count) [3, 8]: obviously inhibited
inhibitory effect on Cutibacterium spp. compared with α-GO ([3]; same concentration (1 μM)): better inhibitory effect
colonization of Propionibacterium acnes in the layered epidermis (live bacteria count) [4, 8]: obviously inhibited
inhibitory effect on Propionibacterium acnes compared with α-GO ([4]; same concentration (1 μM)): better inhibitory effect
colonization of Corynebacterium spp. in the layered epidermis (live bacteria count) [5, 8]: obviously inhibited
inhibitory effect on Corynebacterium spp. compared with α-GO ([5]; same concentration (1 μM)): better inhibitory effect
colonization of Malassezia in the layered epidermis (live count) [6, 8]: obviously inhibited
inhibitory effect on Malassezia compared with α-GO ([6]; same concentration (1 μM)): better inhibitory effect
increase of skin elasticity compared with 0% EGT group ([7]; 10% EGT base cream): about 20%
increase of skin moisture compared with 0% EGT group ([7]; 10% EGT base cream): about 45%
reduction of desquamation compared with 0% EGT group ([7]; 10% EGT base cream): about 30%
skin desquamation ([7]; EGT base cream (5% and 10%)): avoid the problem of skin desquamation
skin elasticity ([7]; EGT base cream (5% and 10%)): significantly increase
skin moisture ([7]; EGT base cream (5% and 10%)): significantly increase
